According to patent publication US20090111836A1, “Angular Pyranocoumarins, Process for Preparation and Uses Thereof” (CITY UNIVERSITY OF HONG KONG, priority 2007, published 2009):
“And” between values parts separate entries of the source, which are not always exact repeats. Equal entries are not always repeated. “Also recorded” adds a separate entry of the source.

What was measured:
Type in all cases: cell-based, human
KB V1 cells [1] = experiment: Reversal of multidrug resistance (fold decrease of anticancer drug IC50), KB V1
Procedure: (§1) Cells and cell culture: cell lines used in the experiments are human hepatoma cell line (HepG2), human leukemia cell line (K562), human epidermoid carcinoma cell line (KB-3-1) and their multidrug resistant sublines HepG2-DR, K562-DR. and KB V1. The culture conditions for all cells are following: at 37° C. and 5% CO2), KB-3-1 and KBV1 were cultured in MEM medium containing 10% fetal bovine serum and 100 U/mL antibiotics; K562, K562-DR, HepG2, HepG2-DR were cultured in RPMI-1640 medium containing 10% fetal bovine serum and 100 U/mL, antibiotics. For maintaining the phenotypic characteristics of multidrug resistance, 1.2 μM and 0.1 μM doxorubicin were respectively added into the mediums of HepG2-DR and K562-DR; 200 ng/mL vinblastine was added into the medium of KBV1. Drug resistant cells were grown in drug free medium for at least 7 days before test.
(§2) Each growth inhibition experiment must be repeated three times and results are expressed as mean±standard deviation (SD). Solvents and media were included as blank control.
(§3) In SRB assay, cells are inoculated at 5000 cells/well in a 96-well microplate and incubated overnight to let cells adhere. Drug treatment lasts for 72 hours and cells are fixed for 1 hour at 4° C. with 50 μl ice-cold 15% trichloroacetic acid and washed with triple-distilled water 5 times. Cellular protein is stained by adding 50 μl of 0.4% SRB in 1% acetic acid for 10 minutes, rinsed with 1% acetic acid 5 times and air-dried. The protein-bound dye is dissolved in 100 μl per well of 10 mM Tris base (pH 10.5). The color intensity of SRB, which positively correlate to cell number in preliminary experiments, is estimated at OD 515 nm.
(§4) 1. Materials and methods: the same with I.
(§5) To evaluate the multidrug resistance reversing ability of (±)-Praeruptorin A derivatives, IC50 values of anticancer drugs in the presence and absence of cis-DMDCK, cis-DMDBK, trans-DMDCK, or trans-DMDBK at certain concentration were determined in HepG2-DR, K562-DR and KB V1 cells. The fold decrease of IC50 value of an anticancer drug in certain cell line achieved by a test compound is calculated (fold decrease=IC50 of an anti-tumor drug alone/IC50 of the anti-tumor drug in combination with the test compound) and is used for evaluating the ability of the test compound to reduce drug resistance. The larger the fold decrease value is, the stronger its ability to reverse drug resistance is. The results were average values of three repetitive tests. Verapamil (P-glycoprotein modulator) is the positive control.

KB V1 cells [2] = experiment: SRB growth inhibition assay, KB V1; details: IC50 KB V1 / IC50 KB-3-1
K562-DR cells = experiment: Reversal of multidrug resistance (fold decrease of anticancer drug IC50), K562-DR; details: 4 μM test compound
Procedure: as §1, §2
In MTT assay, cells are inoculated at 5000 cells/well and are incubated overnight. Drug treatment lasts for 68 h. MTT (5 mg/ml in PBS) is added to each well (1:10 dilution). After incubation for 4 hour at 37° C., 5% CO2, 100 μl of stop solution (10% SDS-50% isobutanol-0.01N HCl) is added to each well to stop the reaction. Viable cell number is estimated by correlating to OD at 570 nm.
as §4, §5

P-gp = experiment: Immunoblotting analysis of P-gp expression, KB V1; details: KB V1, 4 μM, 72 hours
Procedure: Immunoblotting analysis of P-gp expression: cells were treated with 4 μM of cis-DMDCK, 4 μM of cis-DMDBK, 4 μM of trans-DMDCK, or 4 μM of trans-DMDBK for 72 hours. Treated cells were collected and mixed well in ice-cold lysis buffer (50 mM Tris pH7.4, 100 mM NaCl, 2 mM EDTA, 1% sodium deoxycholate, 0.1% SDS, 1% triton X-100, 2 mM PMSF, 1% aprotinin) for 30 minutes and then centrifuged to get the total protein. Protein concentration was determined using Bradford assay. In this experiment, 50 μg total protein was separated by 8% SDS-PAGE and electro-transferred to nitrocellulose membranes. The membrane was blocked by 5% skim milk/0.1% Tween-20/TBS (10 mM Tris pH7.5, 100 mM NaCl), and then incubated with anti-P-pg antibody for 1 hour, followed by horseradish-peroxidase-conjugated secondary antibody for another 1 hour. Protein bands were detected by the ECL method.

HepG2-DR cells [3] = experiment: SRB growth inhibition assay, HepG2-DR; details: IC50 HepG2-DR / IC50 HepG2
Procedure: K562, K562-DR, HepG2, HepG2-DR were cultured in RPMI-1640 medium containing 10% fetal bovine serum and 100 U/mL, antibiotics. […] Drug test: […] New calorimetric cytotoxicity assay for anticancer-drug screening. […] Mosmann T. Rapid colorimetric assay for cellular growth and survival: application to proliferation and cytotoxicity assays. […] Gerlier D, Thomasset N. […] Each growth inhibition experiment must be repeated three times and results are expressed as mean±standard deviation (SD). Solvents and media were included as blank control. In SRB assay, cells are inoculated at 5000 cells/well in a 96-well microplate and incubated overnight to let cells adhere. Drug treatment lasts for 72 hours and cells are fixed for 1 hour at 4° C. with 50 μl ice-cold 15% trichloroacetic acid and washed with triple-distilled water 5 times. […] The protein-bound dye is dissolved in 100 μl per well of 10 mM Tris base (pH 10.5). The color intensity of SRB, which positively correlate to cell number in preliminary experiments, is estimated at OD 515 nm.

HepG2-DR cells [4] = experiment: Reversal of multidrug resistance (fold decrease of anticancer drug IC50), HepG2-DR
Procedure: as §1, §2, §3, §4, §5

Reversing parameter: fold decrease of IC50, verapamil (KB V1 cells [1]; KB V1, 4 μM test compound) [fold]	Reversing parameter: fold decrease of IC50 of Puromycin (KB V1 cells [1]; KB V1, 4 μM test compound) [fold]	Reversing parameter: fold decrease of IC50, verapamil (K562-DR cells) [fold]	Reversing parameter: fold decrease of IC50 of Doxorubicin (K562-DR cells) [fold]	Reversing parameter: fold decrease of IC50 of Puromycin (K562-DR cells) [fold]	Reversing parameter: fold decrease of IC50 of Vinblastine (K562-DR cells) [fold]	Reversing parameter: fold decrease of IC50 of Doxorubicin (HepG2-DR cells [4]; 2 μM test compound)	Reversing parameter: fold decrease of IC50 of Puromycin (HepG2-DR cells [4]; 2 μM test compound)	Reversing parameter: fold decrease of IC50 of Vinblastine (HepG2-DR cells [4]; 2 μM test compound)	Reversing parameter: fold decrease of IC50 of Doxorubicin (HepG2-DR cells [4]; 4 μM test compound)	Reversing parameter: fold decrease of IC50 of Puromycin (HepG2-DR cells [4]; 4 μM test compound)	Reversing parameter: fold decrease of IC50 of Vinblastine (HepG2-DR cells [4]; 4 μM test compound)	Reversing parameter: fold decrease of IC50, verapamil (KB V1 cells [1]; KB V1, 2 μM test compound) [fold]	Reversing parameter: fold decrease of IC50 of Doxorubicin (KB V1 cells [1]; KB V1, 2 μM test compound) [fold]	Reversing parameter: fold decrease of IC50 of Puromycin (KB V1 cells [1]; KB V1, 2 μM test compound) [fold]	Reversing parameter: fold decrease of IC50 of Doxorubicin (KB V1 cells [1]; KB V1, 4 μM test compound) [fold]	Reversing parameter: fold decrease of IC50 of Vinblastine (KB V1 cells [1]; KB V1, 4 μM test compound) [fold]	SMILES	Resistant ratio (KB V1 cells [2])	Change in P-gp (MDR1) expression level (P-gp)	Resistant ratio (HepG2-DR cells [3])	also measured
6.0 ± 3.1	15.3 ± 2.5	27.8 ± 8.7	16.1 ± 9.6	31.1 ± 16.7	31.6 ± 5.1	8.0 ± 0.6 fold	5.6 ± 0.6 fold	1.9 ± 0.0 fold	59.4 ± 18.5 fold	26.6 ± 6.4 fold	13.9 ± 5.8 fold	–	–	–	–	–	COc1ccc(/C=C/C(=O)O[C@@H]2[C@@H](OC(=O)/C=C/c3ccc(OC)c(OC)c3)c3c(ccc4ccc(=O)oc34)OC2(C)C)cc1OC (racemic) [trans-DMDCK, (±)-3′-O,4′-O-bis(3,4-dimethoxycinnamoyl)-trans-khellactone]	0.47	no detectable alteration; also recorded: not observed	1.36	–
499.8 ± 202.8	131.0 ± 7.1	169.9 ± 39.4	28.8 ± 8.9	38.8 ± 8.9	138.7 ± 39.6	107 fold and 107.9 ± 51.9 fold	111 fold and 111.1 ± 38.0 fold	105 fold and 105.7 ± 21.2 fold	160 fold and 160.6 ± 12.6 fold	140 fold and 140.9 ± 65.1 fold	130 fold and 129.9 ± 35.5 fold	128.2 ± 53.8	19.1 ± 11.1	61.4 ± 31.3	50.0 ± 19.1	331.2 ± 155.4	COc1ccc(/C=C/C(=O)O[C@@H]2c3c(ccc4ccc(=O)oc34)OC(C)(C)[C@@H]2OC(=O)/C=C/c2ccc(OC)c(OC)c2)cc1OC (racemic) [cis-DMDCK, (±)-3′-O,4′-O-bis(3,4-dimethoxycinnamoyl)-cis-khellactone]	0.52	no detectable alteration; also recorded: not observed	1.29	Reversing parameter: fold decrease of IC50, verapamil (KB V1 cells [1]; KB V1, 1 μM test compound): 9.0 ± 9.7 fold; Reversing parameter: fold decrease of IC50 of Doxorubicin (KB V1 cells [1]; KB V1, 1 μM test compound): 8.9 ± 2.3 fold; Reversing parameter: fold decrease of IC50 of Puromycin (KB V1 cells [1]; KB V1, 1 μM test compound): 37.0 ± 14.4 fold; Reversing parameter: fold decrease of IC50 of Vinblastine (KB V1 cells [1]; KB V1, 1 μM test compound): 2.3 ± 0.8 fold; Reversing parameter: fold decrease of IC50 of Vinblastine (KB V1 cells [1]; KB V1, 2 μM test compound): 115.0 ± 17.6 fold; Reversing parameter: fold decrease of IC50 of Doxorubicin (HepG2-DR cells [4]; 1 μM test compound): 22 fold and 22.5 ± 9.1 fold; Reversing parameter: fold decrease of IC50 of Puromycin (HepG2-DR cells [4]; 1 μM test compound): 29 fold and 29.5 ± 13.0 fold; Reversing parameter: fold decrease of IC50 of Vinblastine (HepG2-DR cells [4]; 1 μM test compound): 45 fold and 45.7 ± 10.3 fold
2.2 ± 0.4	8.4 ± 4.2	9.8 ± 2.1	7.0 ± 2.2	6.7 ± 0.4	11.0 ± 0.6	3.8 ± 1.6 fold	4.6 ± 1.4 fold	1.5 ± 0.3 fold	58.2 ± 17.2 fold	28.5 ± 0.2 fold	19.3 ± 10.4 fold	–	–	–	2.7 ± 0.9	1.4 ± 0.2	COc1ccc(C(=O)O[C@@H]2[C@@H](OC(=O)c3ccc(OC)c(OC)c3)c3c(ccc4ccc(=O)oc34)OC2(C)C)cc1OC (racemic) [trans-DMDBK, (±)-3′-O,4′-O-bis(3,4-dimethoxybenzoyl)-trans-khellactone]	0.53	no detectable alteration; also recorded: not observed	1.31	–
83.3 ± 35.3	36.8 ± 16.6	105.8 ± 51.1	18.9 ± 7.9	21.8 ± 3.1	75.6 ± 21.3	33.5 ± 7.5 fold	15.4 ± 4.6 fold	12.4 ± 6.1 fold	117.1 ± 13.8 fold	74.6 ± 21.2 fold	82.1 ± 13.1 fold	6.8 ± 2.9	5.6 ± 2.4	15.4 ± 3.3	16.1 ± 9.5	51.6 ± 11.0	COc1ccc(C(=O)O[C@@H]2c3c(ccc4ccc(=O)oc34)OC(C)(C)[C@@H]2OC(=O)c2ccc(OC)c(OC)c2)cc1OC (racemic) [cis-DMDBK, (±)-3′-O,4′-O-bis(3,4-dimethoxybenzoyl)-cis-khellactone]	0.46	no detectable alteration; also recorded: not observed	1.19	Reversing parameter: fold decrease of IC50 of Vinblastine (KB V1 cells [1]; KB V1, 2 μM test compound): 3.5 ± 1.4 fold; Reversing parameter: fold decrease of IC50 of Doxorubicin (HepG2-DR cells [4]; 1 μM test compound): 6.2 ± 0.7 fold; Reversing parameter: fold decrease of IC50 of Puromycin (HepG2-DR cells [4]; 1 μM test compound): 4.6 ± 1.3 fold; Reversing parameter: fold decrease of IC50 of Vinblastine (HepG2-DR cells [4]; 1 μM test compound): 4.8 ± 4.1 fold; Reduction of drug resistance to the four anti-tumor drugs (HepG2-DR cells [4]; 4 μM test compound, range over vinblastine, doxorubicin, puromycin, paclitaxel): 62-117 times
